# Experiments:
# Conditions in all cases: synthetic library passage 3, intravenous, relative to wild-type AAV9
# [1] = test system: brain, spinal cord, and DRG of the NHPs; assay: NGS fold enrichment of synthetic library (passage 3) in NHPs, first cross-species screen; assay type: in vivo, cynomolgus macaques (Macaca fascicularis)
# Summary of the method: (§1)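 Passage-3 synthetic capsid library given intravenously […] to NHPs (2-4 years) and BALB/c or C57Bl/6 mice (n=3, 6-8 weeks). After e.g. 28 days, tissue RNA was RT-PCR amplified and NGS-sequenced; values are fold enrichment of each variant relative to wild-type AAV9.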
# brain [2] = assay: NGS fold enrichment of synthetic library (passage 3) in BALB/c mice, first cross-species screen; assay type: in vivo
# Summary of the method: as §1
# brain [3] = assay: NGS fold enrichment of synthetic library (passage 3) in C57Bl/6 mice, first cross-species screen; assay type: in vivo
# Summary of the method: as §1
# [4] = RNA from spinal cord of NHPs, NGS
# [5] = RNA from brain of BALB/c mice, NGS
# [6] = RNA from brain of C57Bl/6 mice, NGS
Sequence,"Fold enrichment over AAV9 in the brain of NHPs ([1]; RNA NGS, brain of NHPs) [fold]","Fold enrichment over AAV9 in the spinal cord of NHPs ([1]; RNA NGS, spinal cord of NHPs) [fold]","Fold enrichment over AAV9 in the brain of Mice (BALB/c) (brain [2]; RNA NGS, brain of BALB/c mice) [fold]","Fold enrichment over AAV9 in the brain of Mice (C57Bl/6) (brain [3]; RNA NGS, brain of C57Bl/6 mice) [fold]","Fold enrichment over AAV9 in the brain of NHPs ([1]; RNA from brain of NHPs, NGS) [fold]","Fold enrichment over AAV9 in the spinal cord of NHPs [1, 4] [fold]",Fold enrichment over AAV9 in the brain of Mice (BALB/c) (brain [2]; [5]) [fold],Fold enrichment over AAV9 in the brain of Mice (C57Bl/6) (brain [3]; [6]) [fold]
GSGQNQQMAGAFRT,1.003,1.784,0.762,1.307,–,–,–,–
GSGQNQQMPGLSST,–,–,–,–,1.204,1.887,0.181,0.234
GSGQNQQNLGKLNT,–,–,–,–,1.141,0.000,0.687,0.919
GSGQNQQPHLKSLT,1.457,5.016,0.740,1.096,–,–,–,–
GSGQNQQPLDTSRT,1.015,0.775,0.376,0.491,–,–,–,–
GSGQNQQPNSGSMT,1.064,0.925,0.339,0.588,–,–,–,–
GSGQNQQPPLATRT,–,–,–,–,1.386,2.295,0.287,0.593
GSGQNQQPSAFSKT,–,–,–,–,1.220,4.906,0.754,1.309
GSGQNQQPSLRQST,–,–,–,–,1.356,2.905,0.554,1.315
GSGQNQQPSSRVTT,1.012,2.179,0.504,0.784,–,–,–,–
GSGQNQQQIGGNST,1.741,6.169,0.576,0.877,–,–,–,–
GSGQNQQQRDGTLT,–,–,–,–,1.152,0.387,0.730,0.760
GSGQNQQRNSDSVT,1.829,0.000,0.842,1.238,–,–,–,–
GSGQNQQSALRTQT,1.568,1.913,1.421,1.581,–,–,–,–
GSGQNQQSANKILT,–,–,–,–,1.331,3.789,1.236,0.894
GSGQNQQSAREGLT,3.111,5.632,1.104,1.221,–,–,–,–
GSGQNQQSGRGDLT,2.019,6.919,1.152,0.524,–,–,–,–
GSGQNQQSGTFLST,1.090,5.673,0.742,1.021,–,–,–,–
GSGQNQQSHGRIGT,–,–,–,–,1.173,5.117,0.455,0.607
GSGQNQQSHLRTNT,–,–,–,–,1.251,4.583,0.718,1.022

Sequence,"Fold enrichment over AAV9 in the brain of NHPs ([1]; RNA NGS, brain of NHPs) [fold]","Fold enrichment over AAV9 in the spinal cord of NHPs ([1]; RNA NGS, spinal cord of NHPs) [fold]","Fold enrichment over AAV9 in the brain of Mice (BALB/c) (brain [2]; RNA NGS, brain of BALB/c mice) [fold]","Fold enrichment over AAV9 in the brain of Mice (C57Bl/6) (brain [3]; RNA NGS, brain of C57Bl/6 mice) [fold]","Fold enrichment over AAV9 in the brain of NHPs ([1]; RNA from brain of NHPs, NGS) [fold]","Fold enrichment over AAV9 in the spinal cord of NHPs [1, 4] [fold]",Fold enrichment over AAV9 in the brain of Mice (BALB/c) (brain [2]; [5]) [fold],Fold enrichment over AAV9 in the brain of Mice (C57Bl/6) (brain [3]; [6]) [fold]
GSGQNQQSKQQVLT,1.019,1.494,1.256,1.428,–,–,–,–
GSGQNQQSLSGSFT,1.105,0.735,0.883,0.745,–,–,–,–
GSGQNQQSMADHTT,1.494,1.728,0.215,0.428,–,–,–,–
GSGQNQQSMGTFTT,1.625,0.000,0.399,1.792,–,–,–,–
GSGQNQQSNWITKT,2.711,0.000,0.634,0.540,–,–,–,–
GSGQNQQSQYMPRT,–,–,–,–,1.234,0.401,0.520,0.549
GSGQNQQSSFNVQT,0.998,0.000,0.675,1.307,–,–,–,–
GSGQNQQSTGTSRT,1.103,4.054,0.935,1.209,–,–,–,–
GSGQNQQTAHAFNI,–,–,–,–,1.132,3.404,0.729,0.699
GSGQNQQTAIYRNI,1.854,2.207,1.437,0.818,–,–,–,–
GSGQNQQTALEKSL,1.092,0.000,0.702,0.625,–,–,–,–
GSGQNQQTALGVKC,1.835,1.343,1.014,1.378,–,–,–,–
GSGQNQQTALYNNT,–,–,–,–,1.307,0.862,0.726,0.660
GSGQNQQTAMRSTT,1.581,2.588,0.665,0.656,–,–,–,–
GSGQNQQTGLRQQT,1.533,2.120,1.103,1.217,–,–,–,–
GSGQNQQTGMSSVK,2.109,4.544,0.679,1.451,–,–,–,–
GSGQNQQTGNPKHT,1.504,5.973,1.139,1.391,–,–,–,–
GSGQNQQTGQATHN,0.996,2.199,0.527,0.877,–,–,–,–
GSGQNQQTGQHMRV,–,–,–,–,1.286,4.161,1.635,1.839
GSGQNQQTGSSSRV,–,–,–,–,1.176,0.580,1.128,0.995

# Reference: patent publication US20260250318A1, “COMPOSITIONS AND METHODS FOR CROSSING THE BLOOD BRAIN BARRIER” (VOYAGER THERAPEUTICS, INC., priority 2022, published 2026)
